Test results taken from ChEMBL document CHEMBL1201862, “PubChem BioAssay data set” (2004).
Calls of active or inactive are those of the source. For most assays here, no stated cut-off is given here; in the data, actives have a measured EC50 and inactives only a lower limit.

How the values were obtained:
[1] = biological target: Luciferin 4-monooxygenase (Photinus pyralis, UniProt P08659); assay: inhibition of purified Photinus pyralis luciferase – biochemical, luminescence, dose response (AID 1891)
Chain of Luciferin 4-monooxygenase (P08659 whole entry): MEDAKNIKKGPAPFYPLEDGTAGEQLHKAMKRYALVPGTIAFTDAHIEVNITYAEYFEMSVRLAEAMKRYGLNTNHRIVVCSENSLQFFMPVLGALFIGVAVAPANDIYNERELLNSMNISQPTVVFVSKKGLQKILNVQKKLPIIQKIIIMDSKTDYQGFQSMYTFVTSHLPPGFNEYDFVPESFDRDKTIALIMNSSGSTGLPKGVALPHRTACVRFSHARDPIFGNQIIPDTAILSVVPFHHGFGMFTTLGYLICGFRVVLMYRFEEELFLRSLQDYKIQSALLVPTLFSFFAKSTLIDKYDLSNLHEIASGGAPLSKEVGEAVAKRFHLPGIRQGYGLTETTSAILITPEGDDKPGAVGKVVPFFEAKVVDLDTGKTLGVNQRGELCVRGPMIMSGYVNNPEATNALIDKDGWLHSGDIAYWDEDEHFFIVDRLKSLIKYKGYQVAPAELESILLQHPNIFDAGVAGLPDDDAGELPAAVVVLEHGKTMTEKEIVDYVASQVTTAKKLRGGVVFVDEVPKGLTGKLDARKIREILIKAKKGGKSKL

[2] = Luminescence Cell-Based Dose Confirmation HTS to Identify Inhibitors of Platelet Dense Granule Release. [Related pubchem assays: 1663 (Primary HTS), 1678 (Summary of Project)]; type: functional
[3] = biological target: T1, Calpain-2 catalytic subunit (Sus scrofa, UniProt P43367); assay: m-calpain protease blockers, concentration series – biochemical, fluorogenic peptide substrate, dose response (AID 1420); type: functional
T1 sequence (P43367 whole entry): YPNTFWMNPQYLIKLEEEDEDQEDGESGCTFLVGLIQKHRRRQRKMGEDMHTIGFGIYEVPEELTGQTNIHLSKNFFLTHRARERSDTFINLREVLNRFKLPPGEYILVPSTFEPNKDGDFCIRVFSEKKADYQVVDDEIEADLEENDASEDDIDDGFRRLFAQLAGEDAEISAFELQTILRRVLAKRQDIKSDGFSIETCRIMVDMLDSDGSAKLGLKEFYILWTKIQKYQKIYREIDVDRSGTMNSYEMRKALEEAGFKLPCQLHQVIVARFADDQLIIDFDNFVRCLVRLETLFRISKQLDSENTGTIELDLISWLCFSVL

[4] = luciferase reporter signal suppression in cells – H4 neuroglioma cells, luminescence, dose response (AID 1990); type: functional, cell-based
[5] = Luminescence Cell-Based Dose Response HTS to Identify Inhibitors of 5'UTR Stem-Loop Driven Prion Protein mRNA Translation in H4 Neuroglioblastoma Cells. [Related pubchem assays: 1827 (Project Summary), 1813 (Primary HTS)]; type: functional
[6] = alpha-synuclein stem-loop luciferase translation blockers – H4 neuroglioma cells, luminescence, confirmation (AID 1988); type: functional, cell-based
[7] = NIH-3T3 fibroblast cytotoxicity, dose response, cytotoxicity control, cell-based, fluorescence, Alamar Blue, secondary assay (AID 2327); type: functional;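 further: NIH-3T3 mouse fibroblasts cultured with fluconazole at 8 µg/mL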
[8] = fluconazole-exposed Candida albicans growth modulators – fluorescence, retest, confirmation (AID 2467); type: functional, cell-based
H9c2 = assay: cells; type: functional, cell-based; conditions: Rattus norvegicus, H9c2, Myocardium
[9] = system: Streptococcus sp. 'group A'; assay: Streptococcus pyogenes SK(-)GAS viability under kanamycin – luminescence, BacTiterGlo, confirmation, counter-screen for streptokinase expression inhibitor project, dose response (AID 1900); type: functional, organism-based
Streptokinase A = biological target: T2, Streptokinase A (Streptococcus pyogenes serotype M1, UniProt P10520); assay: viability-normalized secreted streptokinase activity reduction – plasminogen activation absorbance, OD405, dose response (AID 1914); type: functional, Streptococcus pyogenes M1 GAS;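 further: secreted streptokinase activity via plasminogen activation per viability signal from cell pellet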
T2 sequence (P10520 whole entry): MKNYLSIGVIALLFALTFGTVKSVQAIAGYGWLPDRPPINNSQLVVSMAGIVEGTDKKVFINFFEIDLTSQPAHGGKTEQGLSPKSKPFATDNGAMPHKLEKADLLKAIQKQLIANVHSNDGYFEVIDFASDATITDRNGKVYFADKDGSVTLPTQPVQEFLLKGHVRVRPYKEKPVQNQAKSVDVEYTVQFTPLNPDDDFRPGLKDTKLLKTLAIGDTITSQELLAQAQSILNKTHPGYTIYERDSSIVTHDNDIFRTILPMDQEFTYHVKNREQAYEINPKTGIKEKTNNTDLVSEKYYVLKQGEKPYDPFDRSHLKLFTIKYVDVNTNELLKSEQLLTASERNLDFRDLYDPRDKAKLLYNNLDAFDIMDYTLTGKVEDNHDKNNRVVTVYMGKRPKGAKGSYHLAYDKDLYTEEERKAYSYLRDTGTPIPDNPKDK

Streptococcus = assay: GAS UMAA2166 growth inhibition – luminescence, BacTiterGlo, counter-screen for streptokinase expression inhibitor project, dose response (AID 1915); type: functional, organism-based;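 further: potency for reduction of bacterial viability or growth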
[10] = biological target: T3, Corticotropin-releasing factor receptor 2/Corticotropin-releasing factor-binding protein (Homo sapiens, UniProt P24387+Q13324); assay: activators of CRF receptor 2 with binding protein – uHTS hits, confirmation (AID 602473); type: functional; conditions: read-out: EC50_Mean
T3 sequence (Q13324 whole entry): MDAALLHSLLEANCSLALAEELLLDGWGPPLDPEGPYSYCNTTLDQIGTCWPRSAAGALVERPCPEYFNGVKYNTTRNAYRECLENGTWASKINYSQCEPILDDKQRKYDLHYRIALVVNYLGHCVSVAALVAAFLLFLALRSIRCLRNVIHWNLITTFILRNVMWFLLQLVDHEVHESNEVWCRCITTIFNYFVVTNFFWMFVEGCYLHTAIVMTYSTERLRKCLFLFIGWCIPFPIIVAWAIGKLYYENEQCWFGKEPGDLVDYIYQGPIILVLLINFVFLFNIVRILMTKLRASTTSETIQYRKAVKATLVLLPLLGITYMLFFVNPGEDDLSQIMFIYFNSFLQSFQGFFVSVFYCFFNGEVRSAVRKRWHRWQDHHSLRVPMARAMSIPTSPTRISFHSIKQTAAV
T3 sequence (P24387 whole entry): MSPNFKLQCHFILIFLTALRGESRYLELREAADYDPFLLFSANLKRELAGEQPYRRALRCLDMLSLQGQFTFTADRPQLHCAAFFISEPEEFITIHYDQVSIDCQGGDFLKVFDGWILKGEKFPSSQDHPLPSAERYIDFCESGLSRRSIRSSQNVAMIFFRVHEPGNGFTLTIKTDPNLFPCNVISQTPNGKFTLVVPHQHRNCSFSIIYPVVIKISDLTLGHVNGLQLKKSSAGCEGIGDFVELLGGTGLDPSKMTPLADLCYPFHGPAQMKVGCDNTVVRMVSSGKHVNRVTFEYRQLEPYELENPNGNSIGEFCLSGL

Paired box protein Pax-8 = Paired box protein Pax-8 (Homo sapiens, UniProt Q06710); assay: PAX8 transcriptional activity inhibition in RMG-I – RMG-I cells, luciferase, cherry-pick, dose response (AID 687027); type: functional, cell-based;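 further: luciferase reporter driven by Pax8 target thyroperoxidase promoter measured by SteadyGlo luminescence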
Chain of Paired box protein Pax-8 (Q06710 whole entry, the tested form may be a part): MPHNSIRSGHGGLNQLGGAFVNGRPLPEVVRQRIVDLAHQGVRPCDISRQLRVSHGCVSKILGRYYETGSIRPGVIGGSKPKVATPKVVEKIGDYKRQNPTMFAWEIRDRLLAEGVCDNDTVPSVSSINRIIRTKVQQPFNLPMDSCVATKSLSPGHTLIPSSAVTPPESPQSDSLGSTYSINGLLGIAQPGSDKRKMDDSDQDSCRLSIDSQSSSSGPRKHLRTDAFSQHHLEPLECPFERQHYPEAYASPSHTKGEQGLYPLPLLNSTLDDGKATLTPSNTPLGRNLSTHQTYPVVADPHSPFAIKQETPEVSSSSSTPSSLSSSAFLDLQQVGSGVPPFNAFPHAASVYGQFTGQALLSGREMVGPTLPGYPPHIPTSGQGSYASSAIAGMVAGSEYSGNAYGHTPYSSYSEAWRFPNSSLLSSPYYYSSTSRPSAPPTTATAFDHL

[11] = blockers of HIV-1 envelope-mediated cell-cell fusion – cherry-pick, dose response (AID 652057); type: functional, cell-based
[12] = blockers of HIV-1 ZM109 envelope-driven cell-cell fusion – HeLa effector, CEM target cells, luciferase, cherry-pick, dose response (AID 652058); type: functional, cell-based;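 further: luciferase signal from HIV-1 Env mediated cell-cell fusion of effector and target cells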
[13] = HIV-1 AD8 envelope cell-cell fusion blockers – cherry-pick, dose response (AID 652062); type: functional, cell-based;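 further: luciferase signal from cell-cell fusion driven by HIV-1 clade B AD8 Env; potency is for inhibitors of fusion seen as a drop in luminescence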

## COc1ccc(NC(=O)CSc2ccccn2)c([N+](=O)[O-])c1
[1]
  EC50: > 112 µM (not active)
[2]
  EC50: > 112 µM (not active)

## O=C(NCCc1csc(-c2cccnc2)n1)c1ccc(Br)o1
[3]
  IC50: < 0.4 µM (not active)

## CC(C)OC(=O)c1cc2c(ccn2C)n1CC(=O)N(Cc1ccccc1)c1ccccc1
[4]
  EC50: > 120 µM (not active)
[5]
  EC50: > 120 µM (not active)
[6]
  EC50: 13.7 µM (active)

## Cc1ccc(CNC(=O)CN=C(S)N(Cc2ccccc2)Cc2ccccc2F)cc1
[3]
  IC50: 5.45 µM (not active)

## CCOC(=O)c1c(NC(=O)CSc2nnnn2C)sc(C)c1-c1ccc(C)cc1
[3]
  IC50: 5.1 µM (not active)

## CCOC(=O)c1c(C)[nH]c(C)c1S(=O)(=O)NCC(=O)Nc1ccccn1
[1]
  EC50: > 112 µM (not active)
[2]
  EC50: > 112 µM (not active)

## CCCCNCCOCCOc1ccc(F)cc1
[1]
  EC50: > 112 µM (not active)
[2]
  EC50: > 112 µM (not active)

## COc1ccc(-n2c(C)c(C(C)=O)c(C(C)=O)c2C)cc1OC
[1]
  EC50: > 112 µM (not active)
[2]
  EC50: > 112 µM (not active)

## O=C(NCC(=O)N(CC1CCCO1)C(C(=O)NC1CCCCC1)c1ccccc1)c1ccco1 (stereo unspecified)
[7]
  EC50: > 150 µM (inactive)
[8]
  EC50: 6.52 µM (active)

## CCCC(=O)C1=C(N2CCCC2)CC(C)(C)C(C(=O)OC)C1=O (stereo unspecified)
[1]
  EC50: > 112 µM (not active)
[2]
  EC50: > 112 µM (not active)

## COc1ccc(CSc2ncnc3sccc23)cc1F
[1]
  EC50: > 112 µM (not active)
[2]
  EC50: > 112 µM (not active)

## CCOc1ccccc1C(=O)N1c2ccccc2Sc2ccccc21
[3]
  IC50: 4.06 µM (not active)

## Cc1cc(OCC(=O)NNC(=S)NC(=O)c2cccs2)ccc1Cl
[7]
  EC50: 74.8 µM (active)
[8]
  EC50: 2.09 µM (active)

## O=C(COS(=O)c1ccccc1)Nc1cc(Cl)ccc1N1CCOCC1 (stereo unspecified)
[7]
  EC50: > 160 µM (inconclusive)
[8]
  EC50: 2.82 µM (active)

## Cn1c(NCc2ccco2)nc2c1c(=O)n(Cc1ccc(Cl)cc1)c(=O)n2C
[4]
  EC50: 16.9 µM (active)
[6]
  EC50: > 120 µM (not active)
[3]
  IC50: 1.88 µM (not active)
H9c2
  IC50: > 79 µM (inactive)

## COc1ccc(NC(=O)c2noc(C(C)C)c2[N+](=O)[O-])cc1
[3]
  IC50: 9.64 µM (not active)

## COc1ccccc1NC(=O)CSc1nc(O)c2c(C)cc(C)nc2n1
[1]
  EC50: > 112 µM (not active)
[2]
  EC50: > 112 µM (not active)

## CNC(=O)COC(=O)c1c2c(nc3ccccc13)CCC2
[7]
  EC50: > 160 µM (inactive)
[8]
  EC50: > 38 µM (not active)

## c1ccc(-c2cn(-c3ccccc3)c3ncnc(N4CCCCC4)c23)cc1
[3]
  IC50: 5.36 µM (not active)

## COc1ccc(NC(=S)N(CCCN2CCOCC2)Cc2cn(C)c3ccccc23)cc1
[3]
  IC50: 0.737 µM (not active)

## CCCC1=NN2C(=N)/C(=C\c3cc(C)n(-c4cc(C)cc(C)c4)c3C)C(=O)N=C2S1
[9]
  EC50: 1.63 µM (active)
Streptokinase A
  EC50: 5.85 µM (active)
Streptococcus
  EC50: 18.7 µM (active)
[10]
  EC50: 9.04 µM (active)

## O=C(O)C1C2C=CC(O2)C1C(=O)NCCCn1ccnc1 (stereo unspecified)
[1]
  EC50: > 112 µM (not active)
[2]
  EC50: > 112 µM (not active)

## CN(C)C(=O)C(=O)c1c(-c2ccccc2)cc2ccccn12
[3]
  IC50: > 50 µM (not active)

## O=C(Nc1ccncc1)c1ccc(Br)cc1
[7]
  EC50: > 150 µM (inactive)
[8]
  EC50: > 38 µM (not active)

## Cc1nc2ncnn2c(Nc2ccc3c(c2)OCO3)c1Cc1ccccc1
[4]
  EC50: 43.7 µM (active)
[5]
  EC50: > 120 µM (not active)
[6]
  EC50: > 120 µM (not active)

## COc1ccc(C(=O)NNC(=S)NC(=O)c2ccc(OC)cc2)cc1
[10]
  EC50: 5.09 µM (active)

## Cc1ccc(C)c(N(C(=O)Cc2cccs2)C(C(=O)NC2CCCC2)c2ccc(C)o2)c1 (stereo unspecified)
[3]
  IC50: 7.05 µM (not active)

## O=C(c1ccco1)N1CCCN(Cc2nc(-c3cccs3)no2)CC1
[1]
  EC50: > 112 µM (not active)
[2]
  EC50: 25 µM (active)

## CSc1ccc(/C=C(/NC(=O)c2ccco2)C(=O)N2CCCCC2)cc1
[1]
  EC50: > 112 µM (not active)
[2]
  EC50: 17.5 µM (active)

## N=C(NOC(=O)c1ccc2ccccc2c1)c1ccccn1
[1]
  EC50: 0.596 µM (active)
[2]
  EC50: 1.53 µM (active)

## Cc1onc(-c2ccccc2)c1C(=O)NC(=S)NNC(=O)c1cccnc1
[7]
  EC50: > 160 µM (inactive)
[8]
  EC50: > 38 µM (not active)

## CC/C(=N\CCc1c(C)[nH]c2ccc(OC(F)(F)F)cc12)C1=C(O)CC(c2ccccc2)CC1=O (stereo unspecified)
[4]
  EC50: 10.7 µM (active)
[5]
  EC50: 16.8 µM (active)
[6]
  EC50: 8.9 µM (active)

## Cc1ccc(S(=O)(=O)Nc2ccc3c(c2)C(=O)N([C@@H](C)CO)C[C@@H](C)[C@@H](CN(C)Cc2ccc(C(F)(F)F)cc2)OCCCC[C@H](C)O3)cc1
Paired box protein Pax-8
  AC50: 9.16 µM (active)

## C[C@H](CO)N1C[C@H](C)[C@H](CN(C)S(=O)(=O)c2ccc(F)cc2)Oc2ccc(NC(=O)Nc3cccc4ccccc34)cc2CC1=O
[11]
  AC50: < 0.26 µM (active)
[12]
  AC50: 0.483 µM (active)
[13]
  AC50: 1.27 µM (active)

## CC(C)CC#Cc1ccc2c(c1)O[C@@H](CN(C)Cc1ccccn1)[C@H](C)CN([C@H](C)CO)S2(=O)=O
[11]
  AC50: 26.1 µM (active)
[12]
  AC50: 31.9 µM (active)
[13]
  AC50: 26 µM (active)

## C[C@@H]1CN([C@@H](C)CO)C(=O)Cc2cc(NC(=O)Nc3ccc(F)cc3)ccc2O[C@H]1CN(C)Cc1ccc(Cl)c(Cl)c1
Paired box protein Pax-8
  AC50: 5.72 µM (active)

## O=C(N/N=C/c1sc(N2CCCCC2)nc1-c1cccs1)c1cccnc1
[7]
  EC50: > 160 µM (inconclusive)
[8]
  EC50: > 38 µM (not active)
